In article PMC8800111 (The Journal of Biological Chemistry, 2021):

Tests used:
Type in all cases: cell-based
[1] = target: proteins of U3A human fibrosarcoma cells (4462 proteins detected) (Homo sapiens, UniProt Q9NTX5); conditions: protein ECHDC1; U3A cells
[2] = target: proteins of U3A human fibrosarcoma cells (4462 proteins detected) (Homo sapiens, UniProt O75449); conditions: protein KATNA1; U3A cells
[3] = target: proteins of U3A human fibrosarcoma cells (4462 proteins detected) (Homo sapiens, UniProt O00244); conditions: protein ATOX1, U3A cells
Chain of proteins of U3A human fibrosarcoma cells (4462 proteins detected) (Homo sapiens, UniProt O00244) (O00244 whole entry): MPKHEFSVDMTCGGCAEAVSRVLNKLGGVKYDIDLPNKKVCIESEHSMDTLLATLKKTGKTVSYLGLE

[4] = target: proteins of U3A human fibrosarcoma cells (4462 proteins detected) (Homo sapiens, UniProt Q96PV6); conditions: protein LENG8; U3A, 10 μM, 2 h
Chain of proteins of U3A human fibrosarcoma cells (4462 proteins detected) (Homo sapiens, UniProt Q96PV6) (Q96PV6 whole entry): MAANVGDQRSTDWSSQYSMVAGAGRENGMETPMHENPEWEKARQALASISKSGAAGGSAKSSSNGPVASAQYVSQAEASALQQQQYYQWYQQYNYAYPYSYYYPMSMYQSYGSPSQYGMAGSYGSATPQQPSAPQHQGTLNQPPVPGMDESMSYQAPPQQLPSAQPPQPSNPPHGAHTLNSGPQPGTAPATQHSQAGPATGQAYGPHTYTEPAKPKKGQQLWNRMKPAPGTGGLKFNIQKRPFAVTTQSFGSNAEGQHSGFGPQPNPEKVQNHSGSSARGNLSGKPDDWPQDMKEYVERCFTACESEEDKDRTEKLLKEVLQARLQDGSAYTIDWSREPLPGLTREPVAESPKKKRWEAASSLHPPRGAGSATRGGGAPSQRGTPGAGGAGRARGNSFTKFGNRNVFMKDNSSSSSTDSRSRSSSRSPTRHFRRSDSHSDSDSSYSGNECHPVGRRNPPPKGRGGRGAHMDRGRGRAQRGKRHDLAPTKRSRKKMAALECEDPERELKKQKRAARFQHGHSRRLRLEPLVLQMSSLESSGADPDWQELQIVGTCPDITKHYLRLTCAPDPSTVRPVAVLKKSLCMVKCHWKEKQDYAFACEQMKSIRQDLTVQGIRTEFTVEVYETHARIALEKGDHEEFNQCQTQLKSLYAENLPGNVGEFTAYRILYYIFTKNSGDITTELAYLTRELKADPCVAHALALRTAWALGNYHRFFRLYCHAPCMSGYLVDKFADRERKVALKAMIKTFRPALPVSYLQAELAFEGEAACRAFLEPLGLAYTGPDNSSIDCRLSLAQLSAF

[5] = target: proteins of U3A human fibrosarcoma cells (4462 proteins detected) (Homo sapiens, UniProt A0MZ66); conditions: protein KIAA1598; U3A, 10 μM, 2 h
[6] = target: proteins of U3A human fibrosarcoma cells (4462 proteins detected) (Homo sapiens, UniProt Q15459); conditions: protein SF3A1; U3A cells
[7] = target: proteins of U3A human fibrosarcoma cells (4462 proteins detected) (Homo sapiens, UniProt P49841); conditions: protein GSK3B; soluble abundance after heat, U3A cells
Chain of proteins of U3A human fibrosarcoma cells (4462 proteins detected) (Homo sapiens, UniProt P49841) (P49841 whole entry): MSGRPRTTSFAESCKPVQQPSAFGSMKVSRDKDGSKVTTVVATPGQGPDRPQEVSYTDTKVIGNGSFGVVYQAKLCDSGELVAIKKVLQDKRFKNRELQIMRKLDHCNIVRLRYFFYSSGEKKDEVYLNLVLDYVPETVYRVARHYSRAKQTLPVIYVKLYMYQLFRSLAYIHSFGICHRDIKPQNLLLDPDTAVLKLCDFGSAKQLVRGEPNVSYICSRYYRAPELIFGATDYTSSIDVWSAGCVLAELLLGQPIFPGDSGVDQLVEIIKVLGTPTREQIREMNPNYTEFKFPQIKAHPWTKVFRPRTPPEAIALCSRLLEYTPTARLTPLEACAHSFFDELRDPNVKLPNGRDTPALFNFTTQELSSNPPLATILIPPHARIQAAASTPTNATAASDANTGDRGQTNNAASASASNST

[8] = target: proteins of U3A human fibrosarcoma cells (4462 proteins detected) (Homo sapiens, UniProt Q9H3N1); conditions: protein TMX1; U3A cells
Chain of proteins of U3A human fibrosarcoma cells (4462 proteins detected) (Homo sapiens, UniProt Q9H3N1) (Q9H3N1 27-280): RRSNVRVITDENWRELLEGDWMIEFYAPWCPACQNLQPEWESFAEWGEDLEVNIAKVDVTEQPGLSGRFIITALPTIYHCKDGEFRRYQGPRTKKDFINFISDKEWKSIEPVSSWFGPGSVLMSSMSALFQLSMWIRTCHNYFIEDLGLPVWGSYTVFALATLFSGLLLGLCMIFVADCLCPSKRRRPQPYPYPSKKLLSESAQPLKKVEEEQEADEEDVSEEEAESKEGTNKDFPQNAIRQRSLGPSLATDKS

[9] = target: proteins of U3A human fibrosarcoma cells (4462 proteins detected) (Homo sapiens, UniProt Q9HB71); conditions: protein CACYBP; U3A cells
[10] = target: proteins of U3A human fibrosarcoma cells (4462 proteins detected) (Homo sapiens, UniProt Q8TEP8); conditions: protein CEP192; U3A, 10 μM, 2 h
[11] = target: proteins of U3A human fibrosarcoma cells (4462 proteins detected) (Homo sapiens, UniProt Q8WUA7); conditions: protein TBC1D22A; soluble abundance after heat, U3A cells
[12] = target: proteins of U3A human fibrosarcoma cells (4462 proteins detected) (Homo sapiens, UniProt O15042); conditions: protein U2SURP; U3A cells
Chain of proteins of U3A human fibrosarcoma cells (4462 proteins detected) (Homo sapiens, UniProt O15042) (O15042 whole entry): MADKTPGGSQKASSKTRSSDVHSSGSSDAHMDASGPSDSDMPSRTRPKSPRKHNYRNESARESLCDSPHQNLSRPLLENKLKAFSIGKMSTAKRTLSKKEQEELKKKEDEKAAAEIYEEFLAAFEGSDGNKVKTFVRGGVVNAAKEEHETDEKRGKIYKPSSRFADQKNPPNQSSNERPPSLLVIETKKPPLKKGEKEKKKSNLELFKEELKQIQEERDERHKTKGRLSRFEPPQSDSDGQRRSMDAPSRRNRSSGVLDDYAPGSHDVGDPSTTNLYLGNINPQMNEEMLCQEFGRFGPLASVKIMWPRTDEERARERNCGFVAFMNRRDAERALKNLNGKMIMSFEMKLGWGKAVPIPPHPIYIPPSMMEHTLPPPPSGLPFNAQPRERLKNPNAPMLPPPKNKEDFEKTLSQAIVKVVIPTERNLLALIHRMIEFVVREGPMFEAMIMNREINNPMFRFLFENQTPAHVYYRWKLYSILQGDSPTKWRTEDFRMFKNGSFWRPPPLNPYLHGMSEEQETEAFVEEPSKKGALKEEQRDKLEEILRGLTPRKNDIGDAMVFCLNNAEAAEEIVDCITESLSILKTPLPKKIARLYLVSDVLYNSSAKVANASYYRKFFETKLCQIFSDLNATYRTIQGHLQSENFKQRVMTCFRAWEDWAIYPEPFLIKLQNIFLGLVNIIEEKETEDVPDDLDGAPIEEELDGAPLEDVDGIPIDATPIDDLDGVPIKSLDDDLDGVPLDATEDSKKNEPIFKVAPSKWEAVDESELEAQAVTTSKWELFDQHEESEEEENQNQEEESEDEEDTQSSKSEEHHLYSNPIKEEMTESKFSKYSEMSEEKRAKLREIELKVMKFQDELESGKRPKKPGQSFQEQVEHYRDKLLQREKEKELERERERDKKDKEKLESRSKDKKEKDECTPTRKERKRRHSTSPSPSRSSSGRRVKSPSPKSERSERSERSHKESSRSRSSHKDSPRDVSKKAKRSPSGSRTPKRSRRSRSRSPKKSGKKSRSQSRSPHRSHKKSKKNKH

[13] = target: proteins of U3A human fibrosarcoma cells (4462 proteins detected) (Homo sapiens, UniProt O94829); conditions: protein IPO13; U3A cells
Chain of proteins of U3A human fibrosarcoma cells (4462 proteins detected) (Homo sapiens, UniProt O94829) (O94829 whole entry): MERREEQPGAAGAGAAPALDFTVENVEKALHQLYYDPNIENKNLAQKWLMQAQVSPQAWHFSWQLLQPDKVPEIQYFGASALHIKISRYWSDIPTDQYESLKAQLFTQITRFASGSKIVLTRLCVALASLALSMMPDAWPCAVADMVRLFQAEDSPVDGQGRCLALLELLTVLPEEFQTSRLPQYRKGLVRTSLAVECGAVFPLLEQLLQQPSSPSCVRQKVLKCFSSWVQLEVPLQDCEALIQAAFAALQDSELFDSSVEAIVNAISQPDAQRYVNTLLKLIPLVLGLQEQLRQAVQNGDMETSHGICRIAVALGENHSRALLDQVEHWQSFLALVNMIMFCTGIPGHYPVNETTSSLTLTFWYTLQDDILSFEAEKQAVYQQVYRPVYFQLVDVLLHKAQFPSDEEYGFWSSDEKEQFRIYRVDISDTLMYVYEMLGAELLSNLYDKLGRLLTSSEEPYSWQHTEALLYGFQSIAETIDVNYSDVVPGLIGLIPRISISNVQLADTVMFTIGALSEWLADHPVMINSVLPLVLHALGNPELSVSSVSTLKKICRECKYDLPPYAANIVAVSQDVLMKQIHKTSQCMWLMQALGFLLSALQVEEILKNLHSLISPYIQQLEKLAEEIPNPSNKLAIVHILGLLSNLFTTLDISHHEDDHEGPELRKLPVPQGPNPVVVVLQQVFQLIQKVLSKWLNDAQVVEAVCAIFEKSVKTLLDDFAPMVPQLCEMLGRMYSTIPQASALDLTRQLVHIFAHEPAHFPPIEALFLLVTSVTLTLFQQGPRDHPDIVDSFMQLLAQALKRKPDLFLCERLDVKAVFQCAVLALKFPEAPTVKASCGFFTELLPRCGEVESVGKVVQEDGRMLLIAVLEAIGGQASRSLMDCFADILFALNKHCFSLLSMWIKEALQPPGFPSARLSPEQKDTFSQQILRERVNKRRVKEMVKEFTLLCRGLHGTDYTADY

[14] = target: proteins of U3A human fibrosarcoma cells (4462 proteins detected) (Homo sapiens, UniProt P01040); conditions: protein CSTA, U3A cells
Chain of proteins of U3A human fibrosarcoma cells (4462 proteins detected) (Homo sapiens, UniProt P01040) (P01040 whole entry): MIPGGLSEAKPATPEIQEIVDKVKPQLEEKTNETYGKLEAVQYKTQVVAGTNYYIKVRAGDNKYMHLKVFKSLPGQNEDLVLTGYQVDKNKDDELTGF

[15] = target: proteins of U3A human fibrosarcoma cells (4462 proteins detected) (Homo sapiens, UniProt P50995); conditions: protein ANXA11; U3A cells
[16] = target: proteins of U3A human fibrosarcoma cells (4462 proteins detected) (Homo sapiens, UniProt P35606); conditions: protein COPB2; soluble abundance after heat, U3A cells
[17] = target: proteins of U3A human fibrosarcoma cells (4462 proteins detected) (Homo sapiens, UniProt P68366); conditions: protein TUBA4A; U3A cells
[18] = target: proteins of U3A human fibrosarcoma cells (4462 proteins detected) (Homo sapiens, UniProt P43243); conditions: protein MATR3; soluble abundance after heat, U3A cells
Chain of proteins of U3A human fibrosarcoma cells (4462 proteins detected) (Homo sapiens, UniProt P43243) (P43243 whole entry): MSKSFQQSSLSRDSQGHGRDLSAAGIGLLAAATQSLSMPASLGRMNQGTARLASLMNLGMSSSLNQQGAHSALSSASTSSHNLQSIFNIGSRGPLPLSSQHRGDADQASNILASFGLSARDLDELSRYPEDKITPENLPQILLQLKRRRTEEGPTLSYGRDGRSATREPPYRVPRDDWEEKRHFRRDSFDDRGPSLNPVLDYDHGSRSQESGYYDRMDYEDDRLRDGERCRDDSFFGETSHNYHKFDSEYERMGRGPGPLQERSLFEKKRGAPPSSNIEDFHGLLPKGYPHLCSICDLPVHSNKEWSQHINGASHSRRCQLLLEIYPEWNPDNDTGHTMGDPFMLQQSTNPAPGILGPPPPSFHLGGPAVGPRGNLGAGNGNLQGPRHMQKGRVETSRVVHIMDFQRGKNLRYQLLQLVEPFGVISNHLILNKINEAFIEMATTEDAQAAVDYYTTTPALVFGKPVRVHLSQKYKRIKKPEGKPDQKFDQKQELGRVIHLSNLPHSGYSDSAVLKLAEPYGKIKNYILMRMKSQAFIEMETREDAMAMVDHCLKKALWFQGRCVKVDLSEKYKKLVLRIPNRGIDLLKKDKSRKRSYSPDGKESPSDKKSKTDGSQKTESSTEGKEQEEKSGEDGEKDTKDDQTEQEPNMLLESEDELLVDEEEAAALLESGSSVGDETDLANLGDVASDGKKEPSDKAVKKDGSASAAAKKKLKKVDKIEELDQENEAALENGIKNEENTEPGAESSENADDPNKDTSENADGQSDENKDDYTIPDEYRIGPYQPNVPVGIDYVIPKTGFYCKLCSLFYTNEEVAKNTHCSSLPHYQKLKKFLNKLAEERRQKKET

[19] = target: proteins of U3A human fibrosarcoma cells (4462 proteins detected) (Homo sapiens, UniProt P36507); conditions: protein MAP2K2; U3A cells
[20] = target: proteins of U3A human fibrosarcoma cells (4462 proteins detected) (Homo sapiens, UniProt Q7Z4W1); conditions: protein DCXR; soluble abundance after heat, U3A cells
[21] = target: proteins of U3A human fibrosarcoma cells (4462 proteins detected) (Homo sapiens, UniProt Q5PSV4); conditions: protein BRMS1L, U3A cells
[22] = target: proteins of U3A human fibrosarcoma cells (4462 proteins detected) (Homo sapiens, UniProt P62847); conditions: protein RPS24, U3A cells
[23] = target: proteins of U3A human fibrosarcoma cells (4462 proteins detected) (Homo sapiens, UniProt Q8TDD1); conditions: protein DDX54; U3A, 10 μM, 2 h
[24] = target: proteins of U3A human fibrosarcoma cells (4462 proteins detected) (Homo sapiens, UniProt P50402); conditions: protein EMD; soluble abundance after heat, U3A cells
[25] = target: proteins of U3A human fibrosarcoma cells (4462 proteins detected) (Homo sapiens, UniProt Q9Y6G5); conditions: protein COMMD10; U3A cells
Chain of proteins of U3A human fibrosarcoma cells (4462 proteins detected) (Homo sapiens, UniProt Q9Y6G5) (Q9Y6G5 whole entry): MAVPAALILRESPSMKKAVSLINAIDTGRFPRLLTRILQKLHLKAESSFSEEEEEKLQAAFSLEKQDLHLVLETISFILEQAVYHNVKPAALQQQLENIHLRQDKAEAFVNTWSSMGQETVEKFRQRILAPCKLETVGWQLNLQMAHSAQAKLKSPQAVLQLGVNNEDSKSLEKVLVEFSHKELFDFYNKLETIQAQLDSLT

[26] = target: proteins of U3A human fibrosarcoma cells (4462 proteins detected) (Homo sapiens, UniProt P51532); conditions: protein SMARCA4; U3A cells
[27] = target: proteins of U3A human fibrosarcoma cells (4462 proteins detected) (Homo sapiens, UniProt Q8IVL6); conditions: protein LEPREL2; soluble abundance after heat, U3A cells
[28] = target: proteins of U3A human fibrosarcoma cells (4462 proteins detected) (Homo sapiens, UniProt O60341); conditions: protein KDM1A; soluble abundance after heat, U3A cells
[29] = target: proteins of U3A human fibrosarcoma cells (4462 proteins detected) (Homo sapiens, UniProt Q13541); conditions: protein EIF4EBP1, U3A cells

Chain of proteins of U3A human fibrosarcoma cells (4462 proteins detected) (Homo sapiens, UniProt Q9NTX5) (Q9NTX5 whole entry): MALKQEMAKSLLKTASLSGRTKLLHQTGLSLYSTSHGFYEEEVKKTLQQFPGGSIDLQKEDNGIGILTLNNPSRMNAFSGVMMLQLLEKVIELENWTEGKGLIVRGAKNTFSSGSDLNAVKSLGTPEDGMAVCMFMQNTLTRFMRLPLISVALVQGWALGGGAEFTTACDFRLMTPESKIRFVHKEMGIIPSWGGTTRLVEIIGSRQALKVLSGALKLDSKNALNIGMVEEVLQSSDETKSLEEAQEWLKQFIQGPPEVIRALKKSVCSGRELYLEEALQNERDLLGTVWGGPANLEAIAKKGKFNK

With CCc1nc(N)nc(N)c1-c1ccc(Cl)cc1 [pyrimethamine] the “Log2 (PYR/DMSO)” value [1] was 0.18, the “Log2 (PYR/DMSO)” value [2] was 0.18 and the “Log2 (PYR/DMSO)” value [3] was -0.04. The “Log2 (PYR/DMSO), LENG8” value [4] was 0.27, the “Log2 (PYR/DMSO), KIAA1598” value [5] was -0.28 and the “Log2 (PYR/DMSO)” value [6] was 0.16. The “Log2 (PYR/DMSO)” value [7] was 0.15, the “Log2 (PYR/DMSO)” value [8] was 0.20 and the “Log2 (PYR/DMSO)” value [9] was 0.19. The “Log2 (PYR/DMSO), CEP192” value [10] was -0.22, the “Log2 (PYR/DMSO)” value [11] was 0.15 and the “Log2 (PYR/DMSO)” value [12] was 0.18. The “Log2 (PYR/DMSO)” value [13] was 0.19, the “Log2 (PYR/DMSO)” value [14] was -0.04 and the “Log2 (PYR/DMSO)” value [15] was 0.19. The “Log2 (PYR/DMSO)” value [16] was 0.15, the “Log2 (PYR/DMSO)” value [17] was 0.17 and the “Log2 (PYR/DMSO)” value [18] was 0.14. For the same compound, the “Log2 (PYR/DMSO)” value [19] was 0.23, the “Log2 (PYR/DMSO)” value [20] was 0.14 and the “Log2 (PYR/DMSO)” value [21] was -0.04. For the same compound, the “Log2 (PYR/DMSO)” value [22] was -0.04, the “Log2 (PYR/DMSO), DDX54” value [23] was 0.25 and the “Log2 (PYR/DMSO)” value [24] was 0.15. For the same compound, the “Log2 (PYR/DMSO)” value [25] was 0.22, the “Log2 (PYR/DMSO)” value [26] was 0.16 and the “Log2 (PYR/DMSO)” value [27] was 0.14. For the same compound, the “Log2 (PYR/DMSO)” value [28] was 0.14 and the “Log2 (PYR/DMSO)” value [29] was -0.04.
